Data reported in US12637453B2, “Pyrazolopyridine inhibitors of c-Jun-n-Terminal kinases and uses thereof” (Dana-Farber Cancer Institute, Inc., priority 2019, dated 2026).

Key:
Format in all cases: biochemical
JNK2 = JNK2 (Homo sapiens, UniProt P45984); test: IC50 assay for JNK kinase inhibition, JNK2
JNK1 = JNK1 (Homo sapiens, UniProt P45983); test: IC50 assay for JNK kinase inhibition, JNK1
JNK3 = JNK3 (Homo sapiens, UniProt P53779); test: IC50 assay for JNK kinase inhibition, JNK3
Sequence of JNK3 (P53779 whole entry): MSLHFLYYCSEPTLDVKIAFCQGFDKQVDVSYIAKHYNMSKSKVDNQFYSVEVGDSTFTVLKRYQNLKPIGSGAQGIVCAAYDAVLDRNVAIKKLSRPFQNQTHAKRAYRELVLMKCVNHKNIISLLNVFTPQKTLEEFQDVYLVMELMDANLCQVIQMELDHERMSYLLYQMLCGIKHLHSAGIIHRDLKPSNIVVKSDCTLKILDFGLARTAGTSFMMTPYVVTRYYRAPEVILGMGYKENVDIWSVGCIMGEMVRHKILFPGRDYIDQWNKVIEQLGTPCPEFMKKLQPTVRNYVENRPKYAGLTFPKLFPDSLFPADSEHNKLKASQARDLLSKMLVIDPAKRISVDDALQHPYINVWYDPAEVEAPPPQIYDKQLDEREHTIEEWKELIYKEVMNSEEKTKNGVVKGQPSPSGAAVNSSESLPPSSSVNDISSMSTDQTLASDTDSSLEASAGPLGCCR

Sequence of JNK2 (P45984 whole entry): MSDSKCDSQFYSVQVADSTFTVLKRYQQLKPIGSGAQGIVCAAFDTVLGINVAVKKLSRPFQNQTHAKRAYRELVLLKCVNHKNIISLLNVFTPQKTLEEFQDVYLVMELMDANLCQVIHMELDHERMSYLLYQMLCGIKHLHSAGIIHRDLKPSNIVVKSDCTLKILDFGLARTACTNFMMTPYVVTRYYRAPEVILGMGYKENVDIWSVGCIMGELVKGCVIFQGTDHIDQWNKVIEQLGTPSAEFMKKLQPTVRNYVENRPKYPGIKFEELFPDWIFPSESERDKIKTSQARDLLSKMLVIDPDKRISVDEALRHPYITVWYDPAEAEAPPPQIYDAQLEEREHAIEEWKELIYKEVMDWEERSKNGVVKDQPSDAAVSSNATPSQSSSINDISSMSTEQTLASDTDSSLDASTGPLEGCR
Sequence of JNK1 (P45983 whole entry): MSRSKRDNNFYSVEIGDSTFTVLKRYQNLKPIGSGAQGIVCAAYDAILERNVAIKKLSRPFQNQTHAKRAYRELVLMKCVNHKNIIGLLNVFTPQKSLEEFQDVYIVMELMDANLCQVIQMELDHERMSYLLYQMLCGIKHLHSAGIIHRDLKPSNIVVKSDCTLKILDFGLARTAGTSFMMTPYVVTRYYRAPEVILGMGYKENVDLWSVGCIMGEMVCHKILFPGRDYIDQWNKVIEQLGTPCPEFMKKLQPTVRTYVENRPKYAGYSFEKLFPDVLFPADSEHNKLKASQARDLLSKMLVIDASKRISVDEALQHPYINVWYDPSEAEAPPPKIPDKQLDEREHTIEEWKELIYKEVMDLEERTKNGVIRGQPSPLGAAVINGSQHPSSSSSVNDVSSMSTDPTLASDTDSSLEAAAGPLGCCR

In the case of `CN(C)C/C=C/C(=O)Nc1ccc(C(=O)N2CCC[C@H](Nc3nccc(-c4c(-c5ccccc5)nn5ccccc45)n3)C2)cc1` [I-1, (S,E)-4-(dimethylamino)-N-(4-(3-((4-(2-phenylpyrazolo[1,5-a]pyridin-3-yl)pyrimidin-2-yl)amino)piperidine-1-carbonyl)phenyl)but-2-enamide], the IC50 (JNK2) was 3.65 nM, the IC50 (JNK1) was 44.7 nM and the IC50 (JNK3) was 2.36 nM.

`CN(C)CCCC(=O)Nc1ccc(C(=O)N2CCC[C@H](Nc3nccc(-c4c(-c5ccccc5)nn5ccccc45)n3)C2)cc1` [I-2, (S)-4-(dimethylamino)-N-(4-(3-((4-(2-phenylpyrazolo[1,5-a]pyridin-3-yl)pyrimidin-2-yl)amino)piperidine-1-carbonyl)phenyl)butanamide] showed an IC50 (JNK2) of 11 nM, an IC50 (JNK1) of 64 nM and an IC50 (JNK3) of 20 nM.

For `C=CC(=O)Nc1ccc(C(=O)N2CCC[C@H](Nc3nccc(-c4c(-c5ccccc5)nn5ccccc45)n3)C2)cc1` [I-3, (S)-N-(4-(3-((4-(2-phenylpyrazolo[1,5-a]pyridin-3-yl)pyrimidin-2-yl)amino)piperidine-1-carbonyl)phenyl)acrylamide], the IC50 (JNK2) was 5.67 nM, the IC50 (JNK1) was 26 nM and the IC50 (JNK3) was 16.2 nM.

In the case of `Nc1ccc(C(=O)N2CCC[C@H](Nc3nccc(-c4c(-c5ccccc5)nn5ccccc45)n3)C2)cc1` [I-4, (S)-(4-aminophenyl)(3-((4-(2-phenylpyrazolo[1,5-a]pyridin-3-yl)pyrimidin-2-yl)amino)piperidin-1-yl)methanone], the IC50 (JNK2) was 2.88 nM, the IC50 (JNK1) was 21.4 nM and the IC50 (JNK3) was 22.5 nM.

Work on `CN(C)C/C=C/C(=O)Nc1ccc(C(=O)N2CCC[C@@H](Nc3nccc(-c4c(-c5ccccc5)nn5ccccc45)n3)C2)cc1` [I-5, (R,E)-4-(dimethylamino)-N-(4-(3-((4-(2-phenylpyrazolo[1,5-a]pyridin-3-yl)pyrimidin-2-yl)amino)piperidine-1-carbonyl)phenyl)but-2-enamide] yielded an IC50 (JNK2) of 24 nM, an IC50 (JNK1) of 569 nM and an IC50 (JNK3) of 15 nM.

`CN(C)CCCC(=O)Nc1ccc(C(=O)N2CCC[C@@H](Nc3nccc(-c4c(-c5ccccc5)nn5ccccc45)n3)C2)cc1` [I-6, (R)-4-(dimethylamino)-N-(4-(3-((4-(2-phenylpyrazolo[1,5-a]pyridin-3-yl)pyrimidin-2-yl)amino)piperidine-1-carbonyl)phenyl)butanamide] gave an IC50 (JNK2) of 40 nM, an IC50 (JNK1) of 278 nM and an IC50 (JNK3) of 1090 nM.

`CN(C)C/C=C/C(=O)Nc1ccc(C(=O)N2CC[C@@H](Nc3nccc(-c4c(-c5ccccc5)nn5ccccc45)n3)C2)cc1` [I-7, (R,E)-4-(dimethylamino)-N-(4-(3-((4-(2-phenylpyrazolo[1,5-a]pyridin-3-yl)pyrimidin-2-yl)amino)pyrrolidine-1-carbonyl)phenyl)but-2-enamide] was tested, and the IC50 (JNK2) was 2.75 nM, the IC50 (JNK1) was 12.5 nM and the IC50 (JNK3) was 25 nM.

For `CN(C)CCCC(=O)Nc1ccc(C(=O)N2CC[C@@H](Nc3nccc(-c4c(-c5ccccc5)nn5ccccc45)n3)C2)cc1` [I-8, (R)-4-(dimethylamino)-N-(4-(3-((4-(2-phenylpyrazolo[1,5-a]pyridin-3-yl)pyrimidin-2-yl)amino)pyrrolidine-1-carbonyl)phenyl)butanamide], the IC50 (JNK2) was 5.59 nM, the IC50 (JNK1) was 73.4 nM and the IC50 (JNK3) was 21.4 nM.

With `CN(C)C/C=C/C(=O)Nc1ccc(C(=O)N2CCCC[C@@H](Nc3nccc(-c4c(-c5ccccc5)nn5ccccc45)n3)C2)cc1` [I-9, (R,E)-4-(dimethylamino)-N-(4-(3-((4-(2-phenylpyrazolo[1,5-a]pyridin-3-yl)pyrimidin-2-yl)amino)azepane-1-carbonyl)phenyl)but-2-enamide] the IC50 (JNK2) was 15.9 nM, the IC50 (JNK1) was 403 nM and the IC50 (JNK3) was 96.1 nM.

`CN(C)CCCC(=O)Nc1ccc(C(=O)N2CCCC[C@@H](Nc3nccc(-c4c(-c5ccccc5)nn5ccccc45)n3)C2)cc1` [I-10, (R)-4-(dimethylamino)-N-(4-(3-((4-(2-phenylpyrazolo[1,5-a]pyridin-3-yl)pyrimidin-2-yl)amino)azepane-1-carbonyl)phenyl)butanamide] gave an IC50 (JNK2) of 7.88 nM, an IC50 (JNK1) of 243 nM and an IC50 (JNK3) of 48.1 nM.

`CN(C)C/C=C/C(=O)Nc1ccc(C(=O)N2CC[C@H](Nc3nccc(-c4c(-c5ccccc5)nn5ccccc45)n3)C2)cc1` [I-11, (S,E)-4-(dimethylamino)-N-(4-(3-((4-(2-phenylpyrazolo[1,5-a]pyridin-3-yl)pyrimidin-2-yl)amino)pyrrolidine-1-carbonyl)phenyl)but-2-enamide] gave an IC50 (JNK2) of 4.91 nM, an IC50 (JNK1) of 152 nM and an IC50 (JNK3) of 51.4 nM.

Molecule `CN(C)CCCC(=O)Nc1ccc(C(=O)N2CC[C@H](Nc3nccc(-c4c(-c5ccccc5)nn5ccccc45)n3)C2)cc1` [I-12, (S)-4-(dimethylamino)-N-(4-(3-((4-(2-phenylpyrazolo[1,5-a]pyridin-3-yl)pyrimidin-2-yl)amino)pyrrolidine-1-carbonyl)phenyl)butanamide] has an IC50 (JNK2) of 17.6 nM, an IC50 (JNK1) of 320 nM and an IC50 (JNK3) of 110 nM.

For `CN(C)C/C=C/C(=O)Nc1ccc(C(=O)N2CCCC[C@H](Nc3nccc(-c4c(-c5ccccc5)nn5ccccc45)n3)C2)cc1` [I-13, (S,E)-4-(dimethylamino)-N-(4-(3-((4-(2-phenylpyrazolo[1,5-a]pyridin-3-yl)pyrimidin-2-yl)amino)azepane-1-carbonyl)phenyl)but-2-enamide], the IC50 (JNK2) was 31 nM, the IC50 (JNK1) was 308 nM and the IC50 (JNK3) was 20 nM.

`CN(C)CCCC(=O)Nc1ccc(C(=O)N2CCCC[C@H](Nc3nccc(-c4c(-c5ccccc5)nn5ccccc45)n3)C2)cc1` [I-14, (S)-4-(dimethylamino)-N-(4-(3-((4-(2-phenylpyrazolo[1,5-a]pyridin-3-yl)pyrimidin-2-yl)amino)azepane-1-carbonyl)phenyl)butanamide] was tested, and the IC50 (JNK2) was 29 nM, the IC50 (JNK1) was 314 nM and the IC50 (JNK3) was 252 nM.

Molecule `CN(C)C/C=C/C(=O)Nc1ccc(C(=O)NC2CCCC(Nc3nccc(-c4c(-c5ccccc5)nn5ccccc45)n3)C2)cc1` (stereo not drawn) [I-15, (E)-4-(4-(dimethylamino)but-2-enamido)-N-(3-((4-(2-phenylpyrazolo[1,5-a]pyridin-3-yl)pyrimidin-2-yl)amino)cyclohexyl)benzamide] has an IC50 (JNK2) of 38.9 nM, an IC50 (JNK1) of 481 nM and an IC50 (JNK3) of 40.3 nM.

With `CN(C)C/C=C/C(=O)Nc1cccc(C(=O)N2CC[C@H](Nc3nccc(-c4c(-c5ccccc5)nn5ccccc45)n3)C2)c1` [I-16, (S,E)-4-(dimethylamino)-N-(3-(3-((4-(2-phenylpyrazolo[1,5-a]pyridin-3-yl)pyrimidin-2-yl)amino)pyrrolidine-1-carbonyl)phenyl)but-2-enamide] the IC50 (JNK2) was 6.94 nM, the IC50 (JNK1) was 37.6 nM and the IC50 (JNK3) was 10.9 nM.

Work on `CN(C)C/C=C/C(=O)Nc1ccc(C(=O)N2CC3CC(Nc4nccc(-c5c(-c6ccccc6)nn6ccccc56)n4)C2C3)cc1` (stereo not drawn) [I-17, (E)-4-(dimethylamino)-N-(4-(6-((4-(2-phenylpyrazolo[1,5-a]pyridin-3-yl)pyrimidin-2-yl)amino)-2-azabicyclo[2.2.1]heptane-2-carbonyl)phenyl)but-2-enamide] yielded an IC50 (JNK2) of 7890 nM, an IC50 (JNK1) greater than 10000 nM and an IC50 (JNK3) greater than 10000 nM.

With `CN(C)C/C=C/C(=O)Nc1ccc(NC(=O)N2CC[C@H](Nc3nccc(-c4c(-c5ccccc5)nn5ccccc45)n3)C2)cc1` [I-18, (S,E)-N-(4-(4-(dimethylamino)but-2-enamido)phenyl)-3-((4-(2-phenylpyrazolo[1,5-a]pyridin-3-yl)pyrimidin-2-yl)amino)pyrrolidine-1-carboxamide] the IC50 (JNK2) was 12.4 nM, the IC50 (JNK1) was 99.3 nM and the IC50 (JNK3) was 15.7 nM.

With `CN(C)C/C=C/C(=O)Nc1ccc2c(N3CC[C@H](Nc4nccc(-c5c(-c6ccccc6)nn6ccccc56)n4)C3)nccc2c1` [I-20, (S,E)-4-(dimethylamino)-N-(1-(3-((4-(2-phenylpyrazolo[1,5-a]pyridin-3-yl)pyrimidin-2-yl)amino)pyrrolidin-1-yl)isoquinolin-6-yl)but-2-enamide] the IC50 (JNK2) was 10 nM, the IC50 (JNK1) was 168 nM and the IC50 (JNK3) was 12 nM.

With `CN(C)C/C=C/C(=O)Nc1ccc(C(=O)N2CC[C@H](Nc3ncc(Cl)c(-c4c(-c5ccccc5)nn5ccccc45)n3)C2)cc1` [I-21, (S,E)-N-(4-(3-((5-chloro-4-(2-phenylpyrazolo[1,5-a]pyridin-3-yl)pyrimidin-2-yl)amino)pyrrolidine-1-carbonyl)phenyl)-4-(dimethylamino)but-2-enamide] the IC50 (JNK2) was 585 nM, the IC50 (JNK1) was 3360 nM and the IC50 (JNK3) was 359 nM.

Molecule `CN(C)C/C=C/C(=O)Nc1ccc(C(=O)N2CC[C@H](Nc3nccc(-c4c(-c5ccc(F)cc5)nn5ccccc45)n3)C2)cc1` [I-22, (S,E)-4-(dimethylamino)-N-(4-(3-((4-(2-(4-fluorophenyl)pyrazolo[1,5-a]pyridin-3-yl)pyrimidin-2-yl)amino)pyrrolidine-1-carbonyl)phenyl)but-2-enamide] has an IC50 (JNK2) of 5.57 nM, an IC50 (JNK1) of 85 nM and an IC50 (JNK3) of 3.87 nM.

`Cc1cccn2nc(-c3ccccc3)c(-c3ccnc(N[C@H]4CCN(C(=O)c5ccc(NC(=O)/C=C/CN(C)C)cc5)C4)n3)c12` [I-23, (S,E)-4-(dimethylamino)-N-(4-(3-((4-(4-methyl-2-phenylpyrazolo[1,5-a]pyridin-3-yl)pyrimidin-2-yl)amino)pyrrolidine-1-carbonyl)phenyl)but-2-enamide] was tested, and the IC50 (JNK2) was 142 nM, the IC50 (JNK1) was 1140 nM and the IC50 (JNK3) was 396 nM.

With `Cc1ccc2c(-c3ccnc(N[C@H]4CCN(C(=O)c5ccc(NC(=O)/C=C/CN(C)C)cc5)C4)n3)c(-c3ccccc3)nn2c1` [I-24, (S,E)-4-(dimethylamino)-N-(4-(3-((4-(6-methyl-2-phenylpyrazolo[1,5-a]pyridin-3-yl)pyrimidin-2-yl)amino)pyrrolidine-1-carbonyl)phenyl)but-2-enamide] the IC50 (JNK2) was 0.952 nM, the IC50 (JNK1) was 18.4 nM and the IC50 (JNK3) was 5.53 nM.

Molecule `CN(C)C/C=C/C(=O)Nc1ccc(C(=O)N2CC[C@H](Nc3nccc(-c4c(-c5cccc(Cl)c5)nn5ccccc45)n3)C2)cc1` [I-25, (S,E)-N-(4-(3-((4-(2-(3-chlorophenyl)pyrazolo[1,5-a]pyridin-3-yl)pyrimidin-2-yl)amino)pyrrolidine-1-carbonyl)phenyl)-4-(dimethylamino)but-2-enamide] has an IC50 (JNK2) of 3.92 nM, an IC50 (JNK1) of 90.7 nM and an IC50 (JNK3) of 18.3 nM.
